Test results as given in patent US5104800A, “One-step cephalosporin C amidase enzyme” (Merck & Co., Inc., priority 1989, dated 1992).

Experiments:
[1] = tested on: cephalosporin C amidase from Bacillus megaterium (alpha(2) beta(2) oligomer, 722 amino acid primary translation product); experiment: Inhibitors of purified cephalosporin C amidase; type: biochemical; conditions: for inhibition of the enzyme (in words): concentration not given; for inhibition at 10 mM (potent inhibitors): inhibitor at 10 mM
Description: (§1) The amino acid sequence of the cephalosporin C amidase enzyme of the present invention, recited further above, was deduced by DNA sequence analysis of the gene coding for the enzyme, and the accuracy of the results have been verified by sequencing three independent isolates from three different strains of Bacillus megaterium. However, since 100% accuracy cannot be totally assured, it has been considered desirable to also identify the cephalosporin C amidase enzyme of the present invention in terms of a number of physical and chemical attributes which it uniquely has. Purification of the enzyme for which such data has been derived is explained in more detail further below. Those data are set out in the following table:
(§2) Assay of activity: incubate 180 μl enzyme with 20 μl 20 mg/ml cephalosporin C; after 3 hours at 37° determine 7-ACA by HPLC assay
(§3) Cultures of B. megaterium were grown as described. The cells were removed from the broth by centrifugation. The broth was brought to 55% saturation with respect to ammonium sulfate and the precipitate removed by centrifugation. The supernatant was then brought to 75% saturated with respect to ammonium sulfate and the cephalosporin C amidase containing precipitate pelleted by centrifugation. This pellet was resuspended in 1/10 of the original culture volume of 15% (w/v) ammonium sulfate, 50 mM sodium phosphate, 5% (w/v) glycerol pH 7.5.
The 10× concentrated enzyme was brought from 15% to 18% w/v ammonium sulfate by addition of saturated ammonium sulfate and filtered through a 0.4 micron filter. Four mls of this was injected onto a Synchrome Synchropak propyl column (25 cm×[…]) which was previously equilibrated with 18% (w/v) ammonium sulfate, 50 mM potassium phosphate pH 7.0. The flow rate was 1 ml/min. For ten minutes after injection the mobile phase composition remained unchanged. From 10 to 40 minutes the mobile phase was changed in a linear gradient to 0% ammonium sulfate, 50 mM sodium phosphate pH 7. From 40-50 minutes the mobile phase composition remained unchanged. Two fractions/min. were collected and assayed for cephalosporin C amidase activity. The activity eluted from 22 to 25 minutes.
The five fractions with the most activity were pooled and concentrated by ultrafiltration in a Centricon 30 (Amicon) to about 50 μl. This concentrated enzyme was injected onto a Zorbox GF 250 (DuPont) column ([…]). The column had been equilibrated and was run in 10% (w/v) ammonium sulfate, 50 mM potassium phosphate pH 7.0 at 1 ml/min. Five fractions/min. were collected. All of the cephalosporin C amidase activity was recovered in two fractions at approximately 9 minutes after injection.
1. The substrate stock solution was prepared by dissolving 20 mg of cephalosporin C in 1 ml of water.
2. Cephalosporin C stock solution (20 μl) was added to the recovered enzyme (180 μl) and the mixture was incubated at 37° C. for 3 hours. Formation of 7-ACA was monitored by HPLC.

[2] = tested on: cephalosporin C amidase from Bacillus megaterium (alpha(2) beta(2) oligomer, 722 amino acid primary translation product); experiment: Kinetic characterisation of purified cephalosporin C amidase (Km, turnover); type: biochemical
Description: as §1, §2
as §3, with “This pellet was resuspended in 1/10 of the original culture volume of 15% (w/v) ammonium sulfate, 50 mM sodium phosphate, 5% (w/v) glycerol pH 7.5.” left out
2. […] Formation of 7-ACA was monitored by HPLC.

Row | Structure (SMILES) | inhibition at 10 mM (potent inhibitors) [1] | further results
1 | CC1(C)S[C@@H]2[C@H](N)C(=O)N2[C@H]1C(=O)O [6-APA] |  | inhibition of the enzyme (in words) [1]: NOT inhibited
2 | C[C@@H](N)C(=O)O [D-alanine] | > 90% | 
3 | NC(=O)CC[C@H](N)C(=O)O [Glutamine] | > 90% | 
4 | NCC(=O)O [Glycine] | > 90% | 
5 | C[C@H](N)C(=O)O [L-alanine] | > 90% | 
6 | CC1(C)S[C@@H]2[C@H](NC(=O)Cc3ccccc3)C(=O)N2[C@H]1C(=O)O [PenG, penicillin G, reference compound] |  | inhibition of the enzyme (in words) [1]: NOT inhibited
7 | CC(=O)OCC1=C(C(=O)O)N2C(=O)[C@@H](NC(=O)CCC[C@@H](N)C(=O)O)[C@H]2SC1 [cephalosporin C] |  | Km ([2]; substrate cephalosporin C): 1300 µM
8 | O=C(O)CCCC(=O)Nc1ccc(C(=O)O)cc1 [glutaryl-4-aminobenzoate, reference compound] |  | turnover number, fold higher than with cephalosporin C ([2]; substrate glutaryl-4-aminobenzoate (GAB) compared with cephalosporin C): 20 fold
